Read-outs that look alike come from different tables or passages of the source.
Key:
CYP-2B6 = CYP-2B6 (Homo sapiens (Human), UniProt P20813); test: CYP panel profile: P450 inhibition, CYP-2B6; format: in vitro ADME; conditions: human liver microsomes
Method: (§1) 5. CYP Panel Profile: P450 Inhibition
(§2) From 10 mM stock solutions of test compounds, a dilution plate was prepared diluting serially starting from 5 mM up to 2 μM in Acetonitrile/DMSO or Methanol/DMSO Human liver Microsomes were added at required concentration as per specific CYP isoform in a deep well assay plate (1A2, 2C9, 2D6, 2B6, 2C8, 2C19, and 3A4). Compounds were spiked in all wells from dilution plate at final concentrations starting from 50 μM up to 0.02 μM, except for positive and negative control. Specific substrate were added to all wells and reactions were pre-incubated for 10 min. To start reactions, NADPH was added to all wells at 1 mM final concentration. Assay plate was mixed by vortexing and incubated at 37° C. for […] for 3A4.20 min for (1A2, 2C9, 2B6, 2C8, 2D6) and […] for 2C19. A quencher with chilled acetonitrile suitable internal standard was added. Samples were centrifuged and supernatants were collected and subjected to LC-MS/MS analysis for determination.

CYP-2C9 = CYP-2C9 (Homo sapiens (Human), UniProt P11712); test: CYP panel profile: P450 inhibition, CYP-2C9; format: in vitro ADME; conditions: human liver microsomes
CYP-2C9, sequence (P11712 whole entry): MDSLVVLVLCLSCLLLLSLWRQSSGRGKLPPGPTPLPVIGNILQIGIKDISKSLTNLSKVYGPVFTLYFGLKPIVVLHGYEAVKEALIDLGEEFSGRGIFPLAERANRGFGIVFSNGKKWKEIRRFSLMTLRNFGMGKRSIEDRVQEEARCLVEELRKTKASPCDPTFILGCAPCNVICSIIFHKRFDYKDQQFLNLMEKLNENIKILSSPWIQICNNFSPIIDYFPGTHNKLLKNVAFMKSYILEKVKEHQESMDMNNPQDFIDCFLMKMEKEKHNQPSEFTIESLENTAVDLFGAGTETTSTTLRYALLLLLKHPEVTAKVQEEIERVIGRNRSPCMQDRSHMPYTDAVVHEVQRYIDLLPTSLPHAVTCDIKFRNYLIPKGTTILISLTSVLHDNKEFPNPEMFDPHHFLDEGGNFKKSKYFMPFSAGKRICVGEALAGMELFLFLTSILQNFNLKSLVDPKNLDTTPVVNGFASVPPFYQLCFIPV
Method: as §1, §2

CYP-2D6 = CYP-2D6 (Homo sapiens (Human), UniProt P10635); test: CYP panel profile: P450 inhibition, CYP-2D6; format: in vitro ADME; conditions: human liver microsomes
Method: as §1, §2

CYP-3A4 = CYP-3A4 (Homo sapiens (Human), UniProt P08684); test: CYP panel profile: P450 inhibition, CYP-3A4; format: in vitro ADME; conditions: human liver microsomes
CYP-3A4, sequence (P08684 whole entry): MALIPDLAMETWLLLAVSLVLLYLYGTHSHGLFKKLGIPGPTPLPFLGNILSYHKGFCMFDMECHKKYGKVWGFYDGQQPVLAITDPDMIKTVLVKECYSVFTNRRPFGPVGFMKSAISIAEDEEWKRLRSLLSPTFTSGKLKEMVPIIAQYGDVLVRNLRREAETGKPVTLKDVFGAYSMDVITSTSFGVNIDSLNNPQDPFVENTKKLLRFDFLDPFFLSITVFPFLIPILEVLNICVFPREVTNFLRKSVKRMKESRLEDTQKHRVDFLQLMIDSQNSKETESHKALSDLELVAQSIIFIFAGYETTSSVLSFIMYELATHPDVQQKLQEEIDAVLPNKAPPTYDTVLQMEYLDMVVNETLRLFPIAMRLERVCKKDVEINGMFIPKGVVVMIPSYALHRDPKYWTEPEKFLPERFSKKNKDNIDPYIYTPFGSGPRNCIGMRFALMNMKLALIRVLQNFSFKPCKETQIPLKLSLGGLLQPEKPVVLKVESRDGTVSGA
Method: as §1, §2

[1] = biological target: aryl hydrocarbon receptor (AhR) (Mus musculus (Mouse), UniProt P30561); test: AhR ligand screening: AhRE-luciferase reporter in transfected Hepa1 cells; format: cell-based; conditions: for Fold @ 1 nM: fold change of luciferase expression at 1 nM test compound relative to vehicle (0.1% DMSO); for Fold @ 100 nM: fold change of luciferase expression at 100 nM test compound relative to vehicle (0.1% DMSO); for Fold @ 10 uM: fold change of luciferase expression at 10 uM test compound relative to vehicle (0.1% DMSO); for Fold relative to benchmark @ 100 nM: luciferase expression at 100 nM test compound relative to 100 nM benchmark compound 11-cl-BBQ
aryl hydrocarbon receptor (AhR), sequence (P30561 10-805): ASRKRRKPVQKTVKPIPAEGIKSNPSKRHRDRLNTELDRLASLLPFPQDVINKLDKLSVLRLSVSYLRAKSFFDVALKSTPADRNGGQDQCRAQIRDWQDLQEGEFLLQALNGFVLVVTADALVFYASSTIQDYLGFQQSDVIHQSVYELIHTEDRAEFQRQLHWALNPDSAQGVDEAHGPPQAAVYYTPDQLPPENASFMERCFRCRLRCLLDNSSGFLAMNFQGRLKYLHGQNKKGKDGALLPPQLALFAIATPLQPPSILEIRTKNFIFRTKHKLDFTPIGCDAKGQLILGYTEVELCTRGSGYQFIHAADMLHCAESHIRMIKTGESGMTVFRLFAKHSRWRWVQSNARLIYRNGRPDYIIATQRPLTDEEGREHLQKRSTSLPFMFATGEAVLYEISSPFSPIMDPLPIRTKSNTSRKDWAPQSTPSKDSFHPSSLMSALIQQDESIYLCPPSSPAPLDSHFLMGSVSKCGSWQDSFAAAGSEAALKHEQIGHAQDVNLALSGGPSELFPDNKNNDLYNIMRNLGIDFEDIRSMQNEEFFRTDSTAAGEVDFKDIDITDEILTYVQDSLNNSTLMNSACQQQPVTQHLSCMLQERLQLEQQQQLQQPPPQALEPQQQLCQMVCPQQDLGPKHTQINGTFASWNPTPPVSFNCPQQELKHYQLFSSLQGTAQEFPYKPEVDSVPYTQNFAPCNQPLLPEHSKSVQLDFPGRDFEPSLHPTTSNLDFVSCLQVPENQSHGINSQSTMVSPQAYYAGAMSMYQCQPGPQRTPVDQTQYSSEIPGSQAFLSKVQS
aryl hydrocarbon receptor (AhR), sequence (P53762 whole entry partner): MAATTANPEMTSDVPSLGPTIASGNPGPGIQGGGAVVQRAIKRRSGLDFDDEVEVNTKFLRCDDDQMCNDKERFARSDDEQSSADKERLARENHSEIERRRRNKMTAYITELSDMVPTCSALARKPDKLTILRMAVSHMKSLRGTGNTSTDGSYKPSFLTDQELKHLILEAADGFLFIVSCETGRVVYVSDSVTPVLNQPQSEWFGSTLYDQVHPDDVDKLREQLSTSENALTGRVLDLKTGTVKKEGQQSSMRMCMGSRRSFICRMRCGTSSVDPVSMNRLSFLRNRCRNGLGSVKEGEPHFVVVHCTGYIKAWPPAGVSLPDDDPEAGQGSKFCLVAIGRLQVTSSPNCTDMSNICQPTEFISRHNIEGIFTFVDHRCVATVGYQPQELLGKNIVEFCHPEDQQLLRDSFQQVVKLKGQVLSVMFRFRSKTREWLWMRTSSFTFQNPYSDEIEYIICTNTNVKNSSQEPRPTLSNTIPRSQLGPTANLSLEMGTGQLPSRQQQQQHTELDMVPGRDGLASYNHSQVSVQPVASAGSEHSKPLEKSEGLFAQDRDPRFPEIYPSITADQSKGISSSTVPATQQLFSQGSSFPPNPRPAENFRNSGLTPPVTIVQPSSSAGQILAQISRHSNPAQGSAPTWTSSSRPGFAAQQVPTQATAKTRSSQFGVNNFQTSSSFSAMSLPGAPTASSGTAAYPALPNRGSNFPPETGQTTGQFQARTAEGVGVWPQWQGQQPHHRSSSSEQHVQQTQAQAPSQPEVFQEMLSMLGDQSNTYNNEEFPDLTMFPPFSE
In short: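 Values are fold luciferase induction relative to vehicle (0.1% DMSO), read by luminometry of lysates from Hepa1 cells carrying an AhRE-driven luciferase reporter. Cells were seeded at 1×10^4 per well, grown overnight and treated with compound before lysis.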

CYP-2C19 = CYP-2C19 (Homo sapiens (Human), UniProt P33261); test: CYP panel profile: P450 inhibition, CYP-2C19; format: in vitro ADME; conditions: human liver microsomes
CYP-2C19, sequence (P33261 whole entry): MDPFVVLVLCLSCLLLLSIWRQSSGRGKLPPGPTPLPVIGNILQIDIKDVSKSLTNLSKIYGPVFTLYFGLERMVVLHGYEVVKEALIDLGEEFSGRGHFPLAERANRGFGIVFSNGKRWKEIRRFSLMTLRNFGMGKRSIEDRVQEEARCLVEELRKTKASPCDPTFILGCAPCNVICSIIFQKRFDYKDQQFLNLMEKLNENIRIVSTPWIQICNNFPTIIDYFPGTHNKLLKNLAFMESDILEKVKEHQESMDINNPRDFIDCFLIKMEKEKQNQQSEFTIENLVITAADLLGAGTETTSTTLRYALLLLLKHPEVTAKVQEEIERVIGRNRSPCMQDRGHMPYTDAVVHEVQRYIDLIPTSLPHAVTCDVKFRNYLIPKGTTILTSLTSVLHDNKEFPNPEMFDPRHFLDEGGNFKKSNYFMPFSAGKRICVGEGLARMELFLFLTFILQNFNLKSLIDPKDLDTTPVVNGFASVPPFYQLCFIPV
Method: as §1, §2

CYP-2C8 = CYP-2C8 (Homo sapiens (Human), UniProt P10632); test: CYP panel profile: P450 inhibition, CYP-2C8; format: in vitro ADME; conditions: human liver microsomes
CYP-2C8, sequence (P10632 whole entry): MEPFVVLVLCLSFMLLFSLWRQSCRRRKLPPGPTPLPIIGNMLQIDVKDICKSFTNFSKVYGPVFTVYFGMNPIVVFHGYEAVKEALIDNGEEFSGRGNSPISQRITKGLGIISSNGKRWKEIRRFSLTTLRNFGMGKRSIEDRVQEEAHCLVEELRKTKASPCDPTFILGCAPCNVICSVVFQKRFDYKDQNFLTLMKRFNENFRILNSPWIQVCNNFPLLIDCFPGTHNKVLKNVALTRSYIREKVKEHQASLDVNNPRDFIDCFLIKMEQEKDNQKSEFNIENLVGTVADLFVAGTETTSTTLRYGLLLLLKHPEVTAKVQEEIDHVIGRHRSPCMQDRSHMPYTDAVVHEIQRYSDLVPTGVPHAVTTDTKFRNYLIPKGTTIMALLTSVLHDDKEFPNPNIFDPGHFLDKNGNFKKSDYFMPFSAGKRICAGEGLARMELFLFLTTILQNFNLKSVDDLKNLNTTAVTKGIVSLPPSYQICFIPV
Method: as §1, §2

CYP-1A2 = CYP-1A2 (Homo sapiens (Human), UniProt P05177); test: CYP panel profile: P450 inhibition, CYP-1A2; format: in vitro ADME; conditions: human liver microsomes; read-out: CYP-1A2 IC50
CYP-1A2, sequence (P05177 whole entry): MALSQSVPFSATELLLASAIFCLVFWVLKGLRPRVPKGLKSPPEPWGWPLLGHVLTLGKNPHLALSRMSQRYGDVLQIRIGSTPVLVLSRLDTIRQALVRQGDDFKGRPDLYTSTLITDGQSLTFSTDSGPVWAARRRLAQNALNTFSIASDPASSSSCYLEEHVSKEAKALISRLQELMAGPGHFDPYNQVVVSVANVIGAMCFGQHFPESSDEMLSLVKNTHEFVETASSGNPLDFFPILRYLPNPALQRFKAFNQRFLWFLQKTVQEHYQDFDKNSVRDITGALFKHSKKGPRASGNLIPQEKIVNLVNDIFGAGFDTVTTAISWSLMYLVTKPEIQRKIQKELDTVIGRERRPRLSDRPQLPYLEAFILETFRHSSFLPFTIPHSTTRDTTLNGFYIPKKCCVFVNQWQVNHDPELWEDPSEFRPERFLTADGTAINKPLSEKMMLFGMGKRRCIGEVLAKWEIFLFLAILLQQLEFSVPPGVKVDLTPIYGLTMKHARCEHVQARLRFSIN
Method: as §1, §2

[2] = Liver microsomal stability, mouse; conditions: for Rem @ MLM × 30 min: mouse liver microsomes, 1 μM compound, 0.5 mg/ml protein; for half-life at 1 μM / microsomal CLint at 1 μM: mouse, liver microsomes, pH 7.4
[3] = Liver microsomal stability, human; conditions: for Rem @ HLM × 30 min: human liver microsomes, 1 μM compound, 0.5 mg/ml protein; for half-life at 1 μM / microsomal CLint at 1 μM: human, liver microsomes, pH 7.4
Method: The assessment of metabolic stability of testing compounds was performed using human, mouse, rat, dog and monkey liver microsomes (20 mg protein/ml). Each reaction mixture contained 42.5 μL of 0.1 M potassium phosphate buffer pH 7.4, containing respective LM protein (final concentration 0.5 mg/ml). 2.5 μL of the compound stock solution was added in it (1 μM final concentration). The reaction was initiated by the addition of 5 μL NADPH solution (final Concentration 1 mM). At different time points (0, 5, 15, and 30 minutes), samples were quenched with 200 μL of cold acetonitrile containing ISTD Propranolol. Samples were centrifuged at 3500 rpm for 20 mM at 4° C. Supernatant was subjected to LC-MS/MS analysis for quantification. Verapamil was used as a positive control.

[4] = Liver microsomal stability, rat; conditions: for Rem @ RLM × 30 min: rat liver microsomes, 1 μM compound, 0.5 mg/ml protein; for half-life at 1 μM / microsomal CLint at 1 μM: rat, liver microsomes, pH 7.4
[5] = In vivo PK study, intravenous and oral administration in male mice; design: species or system mouse; conditions: plasma; for C0: read-out: C0_Cmax
Method: In Vivo PK Study Pharmacokinetics of Exemplary Compounds 362 and 893 Following an Intravenous and Oral Administration in Male C57BL/6J Mice.
Male C57BL/6J mice, approximately 8-10 weeks old, were obtained from the vivarium of Fundación Ciencia & Vida Chile (Santiago, Chile). Dosing solution of Compound 362 for PO administration was formulated in a vehicle containing 40% DMSO, 20% Kolliphor EL, 40% Propylene Glycol at 0.8 mg/mL. Dosing solution of Compound 362 for IV administration was formulated in a vehicle containing 30% DMSO, 20% Kolliphor EL, 50% PBS at […].
Male […] mice, approximately 8-11 weeks old, 22-27 grams were obtained from the vivarium Fundación Ciencia & Vida Chile (Santiago, Chile). Animals were acclimated for a minimum period of 4 days upon arrival at the testing facility. Animals were weighed, identified by marking the tail with numbers using a non-toxic permanent marker and designated into the following treatment groups on the day of dosing:
Group 1 animals received an IV administration via caudal vein of 2 mg/kg PRXS0362 dosing solution.
Group 2 animals received a PO administration via feeding tubes (20 gauge) of 8 mg/kg PRXS0362 dosing solution.
Terminal whole blood was collected via cardiac puncture for group 1 at the following time points: 5, 10, 15, 30, 60, 120, 240, 360, and 480 minutes. Non-dosed mice were used to collect samples of zero time points. For the group 2 at the following time point: 15, 30, 60, 120, 240, 360, and 480 minutes.
Whole blood, approximately 300 μL per time point, was collected into microtainer tubes with EDTA (K2). Blood samples were centrifuged immediately at approximately 9,000 G at 4° C. for 5 minutes and plasma separated. Plasma samples were placed into individually labeled tubes and stored in a −80° C. freezer prior to LC/MS/MS analysis.
The whole brain was collected at each point only for both groups, for this the animals were euthanized with CO2, decapitated, the brain was extracted weighed, frozen in liquid nitrogen and stored at −80° C. prior to LC/MS/MS analysis.
Compound 893 was tested by the same protocol as above.

CYP-2B6, sequence (P20813 whole entry): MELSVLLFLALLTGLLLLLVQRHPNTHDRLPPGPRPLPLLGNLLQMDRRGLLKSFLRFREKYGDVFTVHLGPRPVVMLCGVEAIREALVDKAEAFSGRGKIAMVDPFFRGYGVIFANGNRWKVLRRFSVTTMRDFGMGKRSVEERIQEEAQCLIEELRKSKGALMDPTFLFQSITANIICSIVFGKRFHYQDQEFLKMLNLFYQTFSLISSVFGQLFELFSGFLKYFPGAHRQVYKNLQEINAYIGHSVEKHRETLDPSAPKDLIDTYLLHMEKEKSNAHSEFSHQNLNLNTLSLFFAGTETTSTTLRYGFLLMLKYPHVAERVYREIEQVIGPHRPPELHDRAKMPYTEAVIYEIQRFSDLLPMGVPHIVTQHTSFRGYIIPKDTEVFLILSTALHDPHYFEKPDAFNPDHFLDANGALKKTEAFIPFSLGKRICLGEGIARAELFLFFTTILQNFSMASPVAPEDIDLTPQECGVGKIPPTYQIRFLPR

Row | SMILES | IC50 (CYP-2B6) [µM] | IC50 (CYP-2C9) [µM] | IC50 (CYP-2D6) [µM] | IC50 (CYP-3A4) [µM] | Fold @ 1 nM [1] [fold] | Fold @ 100 nM [1] [fold] | Fold @ 10 uM [1] [fold] | Fold relative to benchmark @ 100 nM [1] [fold] | IC50 (CYP-2C19) [µM] | IC50 (CYP-2C8) [µM] | IC50 (CYP-1A2) [µM] | Rem @ MLM × 30 min [2] [%] | half-life at 1 μM [2] [min] | microsomal CLint at 1 μM [2] [µL/min/mg] | Rem @ HLM × 30 min [3] [%] | half-life at 1 μM [3] [min] | microsomal CLint at 1 μM [3] [µL/min/mg] | Rem @ RLM × 30 min [4] [%] | half-life at 1 μM [4] [min] | microsomal CLint at 1 μM [4] [µL/min/mg] | also measured
1 | O=C(c1ccc(F)c(F)c1)n1c(-c2cccc3ccccc23)nc2cc(Cl)ccc21 [Compound 530] | 9.4 | 5 | > 50 | 3.7 | 2 | 39 | 56 | 0.98 | 3.4 | 9.4 | 0.5 | – | – | – | – | – | – | – | – | – | –
2 | O=C(c1ccccc1)n1c(-c2cccc3ccccc23)nc2cc(OC(F)(F)F)ccc21 [Compound 703] | 12 | 5.3 | > 50 | 10.3 | 1 | 22 | 23 | 0.85 | 0.5 | 4.2 | 0.8 | – | – | – | – | – | – | – | – | – | –
3 | O=C(c1ccccc1)n1c(-c2cccc3ccccc23)nc2cc(Cl)ccc21 [Compound 494] | > 45 | 4.2 | > 50 | 1.2 | 1 | 29 | 43 | 0.94 | 5.2 | 2.5 | 0.7 | – | – | – | – | – | – | – | – | – | –
4 | O=C(c1cccc2ccccc12)n1c(-c2cccc3ccccc23)nc2cc(Cl)ccc21 [Compound 704] | 8.2 | 8.9 | > 50 | 3.9 | – | – | – | – | 4.6 | 5.6 | 1.2 | – | – | – | – | – | – | – | – | – | –
5 | O=C(c1cccc2ccccc12)C1CN(C(=O)c2ccccc2)c2ccc(Cl)cc21 (stereo not drawn) [Compound 521] | – | – | – | – | 1 | 1 | 1 | 0.07 | – | – | – | 64.6 | 60.9 | 23 | 58.0 | 40.3 | 34 | 45.5 | 24.8 | 56 | –
6 | O=S(=O)(c1ccc2ccccc2c1)n1c(-c2cccc3ccccc23)nc2cc(Cl)ccc21 [Compound 785] | – | – | – | – | 1 | 16 | 44 | 0.55 | – | – | – | 49.3 | 29.4 | 47.2 | 54.2 | 33.9 | 40.9 | 57.1 | 36.5 | 37.9 | –
7 | CN(C)c1ccc(C(=O)c2c[nH]c3ccc(Cl)cc23)cc1 [Compound 891] | – | – | – | – | 1 | 1 | 21 | 0.02 | – | – | – | 52.4 | 36.3 | 38.2 | 54.3 | 42.4 | 32.7 | 45.2 | 31 | 44.7 | –
8 | O=c1c2cccc3cccc(c32)c2nc3cc(Cl)ccc3n12 [Compound 362, 6-chloro-3,10-diazapentacyclo[10.7.1.0^2,10.0^4,9.0^16,20]icosa-1(19),2,4(9),5,7,12,14,16(20),17-nonaen-11-one] | – | – | – | – | 16 | 22 | – | 1 | – | – | – | 12.0 | 9.8 | 141 | – | – | – | 14.5 | 11.4 | 121 | CL_CL/F ([5]; IV 2 mg/Kg): 4.418 L/[Kg*h]; Vd_Vd/F ([5]; IV 2 mg/Kg): 5.67 L/kg; thalf ([5]; IV 2 mg/Kg): 0.889 h; CL_CL/F ([5]; PO 8 mg/Kg): 7.86 L/[Kg*h]; Vd_Vd/F ([5]; PO 8 mg/Kg): 8.314 L/kg; thalf ([5]; PO 8 mg/Kg): 0.733 h; AUC(0-inf) ([5]; mouse, IV 2 mg/Kg): 453 ng·h/mL; AUC(0-t) ([5]; mouse, IV 2 mg/Kg): 451 ng·h/mL; MRT ([5]; mouse, IV 2 mg/Kg): 52.3 min; C0 ([5]; mouse, IV 2 mg/Kg): 215 ng/mL; bioavailability ([5]; mouse, PO 8 mg/Kg vs IV 2 mg/Kg): 56.2%; AUC(0-inf) ([5]; mouse, PO 8 mg/Kg): 1020 ng·h/mL; AUC(0-t) ([5]; mouse, PO 8 mg/Kg): 1020 ng·h/mL; MRT ([5]; mouse, PO 8 mg/Kg): 98 min; Tmax ([5]; mouse, PO 8 mg/Kg): 60 min; C0 ([5]; mouse, PO 8 mg/Kg): 427 ng/mL
9 | O=S(=O)(c1ccc2ccccc2c1)n1c(-c2cccc3ccccc23)nc2ccc(Cl)cc21 [Compound 786] | – | – | – | – | 1 | 31 | 40 | 1.07 | – | – | – | 22.1 | 13.4 | 104 | 27.4 | 16.1 | 86.2 | 25.6 | 14.8 | 93.8 | –
